Here are results for 21 molecules from PMC6154314, “Evaluation of the Mycobactericidal Effect of Thio-functionalized Carbohydrate Derivatives” (Molecules : A Journal of Synthetic Chemistry and Natural …, 2017).

In brackets after ≈: the same amount, converted by molar mass. Entries after “also recorded” stand apart in the source; their conditions may differ. Read-outs that look alike come from different tables or passages of the source.

The subject of data set [1] is Mycobacterium tuberculosis H37Rv strain (Mtb). The data set can be described thus: Susceptibility of M. tuberculosis in broth culture (OD600 and CFU analysis). It is filed as cell-based. Conditions: for MIC50 anti-Mtb (OD) / MIC50: M. tuberculosis H37Rv, broth culture, 96 h; for Bactericidal activity against M. tuberculosis (in words): tested at 1–0.25 mM, OD600; for MIC50: Mycobacterium tuberculosis.

The nature of data set [2]: Lipophilicity, octanol/water partition coefficient (LogP). It counts as physicochemical. As to the method:
The most important parameter of drug candidates is lipophilicity, which determines water solubility, absorption and often cytotoxicity. The lipophilicity of the synthesized compounds was measured as the partition (P) or distribution (D) coefficient. The octanol/water partition/distribution coefficient is a widely used parameter for measuring lipophilicity. The Log P value is the ratio of the concentrations of a neutral substance in two immiscible phases: water and octan-1-ol. Log D is the log partition at a particular pH, and it is usually reserved for partition coefficients measured under conditions in which the solute is partially or completely ionized in the aqueous phase. For all compounds used in this work, the LogP and cLogP values were determined (Table 4). Each compound was also analysed by TLC (thin layer chromatography) and ^1H-NMR to verify its purity. All synthesized and tested compounds were analytically pure. Complete characterization of the products was performed by NMR spectroscopy and HR-MS techniques to confirm their purity and molecular structures.

Data set [3] relates to Staphylococcus aureus. Put plainly: Broth microdilution susceptibility test (CLSI), S. aureus. Particulars: for MIC50: Staphylococcus aureus, read-out: MIC50 anti-S. aureus. It is filed as cell-based.
For data set [4], the system named is Escherichia coli. Put plainly: Broth microdilution susceptibility test (CLSI), E. coli. It is filed as cell-based. Particulars: for MIC50: Escherichia coli, read-out: MIC50 anti-E. coli. For orientation: In broth dilution the organism is exposed to a series of concentrations in liquid medium.
Data set [5] has as its system human monocyte-derived macrophages (MDMs). Particulars: MTT, 48 h, uninfected MDMs; 50, 30, 30, 25 µM for 6, 16A, 20, 23.
Data set [6] concerns Mycobacterium tuberculosis in human monocyte-derived macrophages. The data set can be described thus: Bactericidal effect against intracellularly growing tubercle bacilli in human monocyte-derived macrophages (CFU). It is filed as cell-based. Particulars: Mtb-infected human MDMs; for Inhibition of growth of intracellularly deposited tubercle bacilli (in words): 48 h, compounds at MIC50 concentrations.

Data set [7] deals with bacterium. More on the design: method as in PMID 387415, PMID 16707680. Particulars: as low as; after siderophore-dependent uptake and intracellular activation; cited from earlier work.
Where [8] appears, read: microdilution, Mueller-Hinton broth, 18 h, OD600.
Setting [9] is: read by OD600, read-out: MIC50 anti-Mtb (OD).
Setting [10] is: read by CFU, read-out: MIC50 anti-Mtb (CFU).

The term logP denotes the decadic logarithm of the partition coefficient of the neutral form, usually between octanol and water. A lower logP goes with a more hydrophilic compound. Regarding “5-thio-D-glucose pentaacetate [Compound 1]”, the “MIC50 anti-Mtb (OD)” value in data set [1] (read by OD600) is “MIC50 > 1 mM/OD”. For the same molecule, the “Bactericidal activity against M. tuberculosis (in words)” value (shortened to “Bactericidal activity”) in data set [1] is “not bactericidal”. Further, in data set [2] (octanol/water), the lipophilicity (logP) is −0.51.
For the molecule 6-thio-β-D-fructopyranose [Compound 2], in data set [3] (setting [8]), the “MIC50 anti-S. aureus” value was “MIC50 > 2 mM/E. coli MIC50 > 2 mM/S. aureus”. Besides, in data set [1] (read by OD600), the “MIC50 anti-Mtb (OD)” value is “MIC50 > 1 mM/OD”. For the same molecule, in data set [1], the “Bactericidal activity” value was “not bactericidal”. For the same molecule, in data set [4] (setting [8]), the “MIC50 anti-E. coli” value is “MIC50 > 2 mM/E. coli MIC50 > 2 mM/S. aureus”. Besides, the lipophilicity (logP) in data set [2] (octanol/water) is recorded as −1.36.
In general, MIC50 refers to the lowest concentration that inhibits either 50% of growth or 50% of the strains tested, depending on the study. `OC[C@@]12CO[C@H](O1)[C@H](O)[C@@H](O)[C@H]2O` [Compound 3, 1,6-anhydro-5-C-hydroxymethyl-α-L-altro-pyranose]: the MIC50 in data set [1] (setting [9]) was above 1000 µM. Moreover, in data set [1], the “Bactericidal activity” value is “not observed”. The same molecule yielded a log partition coefficient (logP) in data set [2] of -2.38.
The corresponding values for `OC1C(O)C(O)C2(CO2)C(O)C1O` (centres unmarked) [Compound 4, 2-C-methylene-myo-inositol oxide] are above 1000 µM, “not active” and -3.22.
Consider `CS(=O)(=O)NC[C@H]1OC[C@H](O)[C@@H](O)[C@@H]1O` [Compound 5, 1,5-anhydro-6-deoxy-6-methanesulfamido-D-glucitol], for which the MIC50 was above 2000 µM in data set [3] (setting [8]), above 1000 µM in data set [1] (setting [9]) and above 2000 µM in data set [4] (setting [8]). The “Bactericidal activity” value in data set [1] is “not active”. In addition, the logP in data set [2] is -3.6.
For the molecule `CC(=O)OC[C@H]1O[C@@H](S[C@@H]2CC(=O)[C@@H]3OC[C@H]2O3)[C@H](OC(C)=O)[C@@H](OC(C)=O)[C@@H]1OC(C)=O` [Compound 6], the MIC50 in data set [3] (setting [8]) worked out at 2500 µM (≈ 1230 µg/mL); in data set [1] (setting [10]), 50 µM (≈ 24.5 µg/mL); in data set [4] (setting [8]), 5000 µM (≈ 2450 µg/mL). Further, the “OD[570nm] ± SD” value in data set [5] stood at 2.163 ± 0.054. Besides, the “Inhibition of growth of intracellularly deposited tubercle bacilli (in words)” value (“Inhibition” for short) in data set [6] is given as “able to inhibit the growth; also recorded: significantly inhibit the growth”. Besides, the logP in data set [2] was -1.13.
`O=C1C[C@@H](S[C@@H]2O[C@H](CO)[C@@H](O)[C@H](O)[C@H]2O)[C@H]2CO[C@@H]1O2` [Compound 7, 1,6-anhydro-3-deoxy-4-S-β-D-glucopyranosyl-D-glycero-hexopyranos-2-ulose]: the MIC50 in data set [3] (setting [8]) was above 10000 µM; in data set [1] (setting [10]), 500 µM (≈ 161 µg/mL); in data set [4] (setting [8]), above 10000 µM. Besides, the “Fold increase of the concentration (MIC50) needed to inhibit Mtb relative to compound 6” value in data set [1] amounted to 10 times. The logP in data set [2] is -2.05.
For `O=C(O)c1ccccc1S[C@@H]1CC(=O)[C@@H]2OC[C@H]1O2` [Compound 8, 1,6-anhydro-3-deoxy-4-S-β-salicylyl-D-glycero-hexopyranos-2-ulose], the MIC50 in data set [3] (setting [8]) was above 10000 µM; in data set [1] (setting [10]), 200 µM (≈ 56.1 µg/mL); in data set [4] (setting [8]), above 10000 µM. Also, in data set [1], the “Fold increase of the concentration (MIC50) needed to inhibit Mtb relative to compound 6” value was 4 times. In data set [2], the logP came to 1.28.
With `CC(=O)OC[C@H]1O[C@@H](S[C@@H]2CC(=O)[C@@H]3OC[C@H]2O3)[C@H](OC(C)=O)[C@@H](OC(C)=O)[C@H]1OC(C)=O` [Compound 9], in data set [1] (setting [9]), the MIC50 is above 150 µM. Moreover, in data set [1], the “Fold increase of the concentration (MIC50) needed to inhibit Mtb relative to compound 6” value was “at least 3 times”. Also, the lipophilicity (logP) in data set [2] is -1.13.
With `CC(=O)N[C@H]1CO[C@H](CO)[C@@H](O)[C@@H]1O` [Compound 10, 2-acetamido-2-dexy-1,5-anhydro-D-mannitol], the MIC50 was above 10000 µM in data set [3] (setting [8]), above 1000 µM in data set [1] (setting [9]) and above 10000 µM in data set [4] (setting [8]). This molecule also had a logP in data set [2] of -2.75.
As for `CC1(C)O[C@H]2O[C@H](C3CO3)[C@H](O)[C@H]2O1` (stereo partly drawn) [Compound 11, 1,2-O-isopropylidene-5,6-anhydro-D-glucofuranose], in data set [1] (setting [9]), the MIC50 was determined as 750 µM (≈ 152 µg/mL). This molecule also registered a logP in data set [2] of -0.39.
For the molecule `COCC(OC(C)=O)[C@H]1O[C@@H]2OC(C)(C)O[C@@H]2[C@H]1OC(C)=O` (stereo partly drawn) [Compound 12, 1,2-O-isopropylidene-3,5-di-O-acetyl-6-methoxy-D-glucofuranose], the MIC50 was above 10000 µM in data set [3] (setting [8]), above 1000 µM in data set [1] (setting [9]) and above 5000 µM in data set [4] (setting [8]). Besides, the logP in data set [2] is -0.2.
The corresponding values for `O=[N+]([O-])CC1(O)O[C@H](CO)[C@@H](O)[C@H](O)[C@H]1O` (stereo partly drawn) [Compound 13, 1-C-nitromethyl-D-gluco-pyranose] are above 10000 µM, above 1000 µM, above 10000 µM and -4.22.
The corresponding values for `NC(=S)NN=C1C=C[C@H]2CO[C@@H]1O2` [Compound 14, 1,6-anhydro-3,4-dideoxy-α-D-glycero-hex-3-enopyranos-2-thiosemicarbazone] are above 5000 µM, 350 µM (≈ 69.7 µg/mL), above 5000 µM and -0.18.
The corresponding values for `NC(=S)NN=C1CC[C@H]2CO[C@@H]1O2` [Compound 14A, 1,6-anhydro-3,4-dideoxy-α-D-glycero-hexopyranos-2-thiosemicarbazone] are above 1250 µM, above 1000 µM, above 2500 µM and -0.29.
For the molecule `CC(=O)OC[C@H]1O[C@@H](O[C@H]2[C@H](OC(C)=O)[C@@H](OC(C)=O)[C@H](S[C@@H]3CC(=NNC(N)=S)[C@@H]4OC[C@H]3O4)O[C@@H]2COC(C)=O)[C@H](OC(C)=O)[C@@H](OC(C)=O)[C@H]1OC(C)=O` [Compound 16A], the MIC50 is above 1250 µM in data set [3] (setting [8]); 30 µM (≈ 25.6 µg/mL) in data set [1] (setting [10]); above 150 µM in data set [4] (microdilution, Mueller-Hinton broth, 18 h, OD600, printed in µM). In data set [4], the “Concentration inhibiting the growth of E. coli” value is recorded as “below 1 mM”. Also, in data set [6], the “Inhibition” value is on record as “able to inhibit the growth”. Further, the “Decrease of the number of intracellularly growing mycobacteria” value in data set [6] (MOI 1:10, 48 h, compound at MIC (30 µM for 16A), CFU vs untreated control) was around 61%.
As to `CC(=O)OC[C@H]1O[C@@H](O[C@H]2[C@H](OC(C)=O)[C@@H](OC(C)=O)[C@H](S[C@@H]3CC(=O)[C@@H]4OC[C@H]3O4)O[C@@H]2COC(C)=O)[C@H](OC(C)=O)[C@@H](OC(C)=O)[C@H]1OC(C)=O` [Compound 16], the MIC50 in data set [3] (setting [8]) was above 5000 µM; in data set [1] (setting [9]) it was 500 µM (≈ 389 µg/mL); in data set [4] (setting [8]), above 5000 µM. In data set [1], the “Fold increase of the concentration (MIC50) needed to inhibit Mtb relative to compound 6” value is reported as 10 times. Further, the lipophilicity (logP) in data set [2] is -2.18.
Turning to `CC(=O)OC[C@H]1O[C@@H](O[C@H]2[C@H](OC(C)=O)[C@@H](OC(C)=O)[C@H](SC34CC5CC(CC(C5)C3)C4)O[C@@H]2COC(C)=O)[C@H](OC(C)=O)[C@@H](OC(C)=O)[C@H]1OC(C)=O` [Compound 19], the MIC50 in data set [1] (setting [9]) worked out at 500 µM (≈ 393 µg/mL).
In general, melting point refers to the temperature of the solid-liquid transition. In the case of `Nc1nnc(S[C@@H]2CC(=O)[C@@H]3OC[C@H]2O3)s1` [Compound 23, (1R,2R,5R)-2-((5-amino-1,3,4-thiadiazol-2-yl)-thio)-6,8-dioxabicyclo[3.2.1]octan-4-one], the melting point was 140 to 142 °C. In data set [3], the “Concentration inhibiting the growth of S. aureus” value is on record as at most 1 mM. Further, in data set [3] (setting [8]), the MIC50 is above 625 µM. The MIC50 in data set [1] (setting [10]) was 25 µM (≈ 6.48 µg/mL). Further, the “OD[570nm] ± SD” value in data set [5] came out at 2.428 ± 0.031. Further, the “Concentration inhibiting the growth of E. coli” value in data set [4] is “below 1 mM”. In addition, the MIC50 in data set [4] (setting [8]) is above 1250 µM. For the same molecule, the “Inhibition” value in data set [6] is “able to inhibit the growth; also recorded: significantly inhibit the growth”. The molecule also yielded a logP in data set [2] of 1.37.
Molecule `O=C1C[C@@H](SC2=NCCS2)[C@H]2CO[C@@H]1O2` [Compound 26, (1R,2R,5R)-2-((4,5-dihydrothiazol-2-yl)-thio)-6,8-dioxabicyclo[3.2.1]octan-4-one] yielded a melting point of 127 to 129 °C. The MIC50 in data set [3] (setting [8]) is above 2500 µM. In data set [1] (setting [10]), the MIC50 amounted to 50 µM (≈ 12.3 µg/mL). Also, the “Concentration inhibiting the growth of E. coli” value in data set [4] was “below 1 mM”. In data set [4] (setting [8]), the MIC50 is above 2500 µM. The “Inhibition” value in data set [6] is given as “able to inhibit the growth”. In data set [2], this molecule yielded a logP of 1.13.
In general, MIC refers to the least concentration at which growth counts as inhibited. Turning to albomycin, the minimal inhibitory concentration (MIC) in data set [7] was 0.008 µM.
